In patent US8148391B2 (Cephalon, Inc., priority 2006, dated 2012) one finds IC50 data, which are given here for 22 compounds.

The term IC50 denotes the concentration needed to halve the response being measured.

Bounds are passed on as bounds.

In assay [1] the target is T1, baculovirus-expressed ALK (Homo sapiens, UniProt Q9UM73).
T1 construct: host or cells: baculovirus expression system
As to the kind of experiment: ALK Kinase Assay (ELISA-type, time-resolved fluorescence). Format: biochemical. As to conditions: 1 μM ATP (Km level); read-out: ALK Activity (ALK Kinase Inhibition, IC50). The method, boiled down:
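Plates coated with phospholipase C-γ substrate (10 μg/mL in TBS); reaction started with 30 ng/ml ALK and run 15 min at 37° C. Phosphorylated substrate detected with Eu-N1-labeled PT66 antibody. IC50 from sigmoidal variable-slope fit of percent inhibition vs log concentration.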
(In general: An ELISA detects its analyte on a solid surface through an enzyme-linked reagent.)

In assay [2] the target is T2, c-Met (cytoplasmic domain) (Homo sapiens, UniProt P08581).
T2 construct: 10 ng/mL c-Met (cytoplasmic domain, Invitrogen Corporation #PV3143); purchased Invitrogen Corporation PV3143
T2 sequence (P08581 956-1390 limits assumed): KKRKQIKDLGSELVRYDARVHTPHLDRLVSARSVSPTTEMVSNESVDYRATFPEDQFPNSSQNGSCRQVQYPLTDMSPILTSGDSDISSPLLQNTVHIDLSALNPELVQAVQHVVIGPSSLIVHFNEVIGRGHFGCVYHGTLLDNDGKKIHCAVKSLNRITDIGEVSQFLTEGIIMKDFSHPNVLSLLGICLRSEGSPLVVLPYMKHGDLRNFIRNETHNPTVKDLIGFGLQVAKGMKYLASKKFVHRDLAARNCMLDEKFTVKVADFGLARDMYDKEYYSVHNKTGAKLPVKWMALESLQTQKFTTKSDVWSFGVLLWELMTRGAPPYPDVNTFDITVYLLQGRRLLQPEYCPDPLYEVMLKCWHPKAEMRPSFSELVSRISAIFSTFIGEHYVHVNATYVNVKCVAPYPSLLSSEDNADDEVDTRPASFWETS
As to the kind of experiment: c-Met Kinase Assay (same methods as for ALK, with modifications). As to conditions: 1 μM ATP (Km level); read-out: cMet Activity (c-Met Kinase Inhibition, IC50). Format: biochemical. In a few lines: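 Plates were coated with phospholipase C-γ substrate (10 μg/mL) in TBS, and the reaction was started with 10 ng/mL c-Met cytoplasmic domain and run 15 min at 37 °C. Phosphoproduct was detected with Eu-N1-labelled PT66 antibody. IC50 came from a variable-slope sigmoidal fit of percent inhibition vs log concentration.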

T1 sequence (Q9UM73 19-1620): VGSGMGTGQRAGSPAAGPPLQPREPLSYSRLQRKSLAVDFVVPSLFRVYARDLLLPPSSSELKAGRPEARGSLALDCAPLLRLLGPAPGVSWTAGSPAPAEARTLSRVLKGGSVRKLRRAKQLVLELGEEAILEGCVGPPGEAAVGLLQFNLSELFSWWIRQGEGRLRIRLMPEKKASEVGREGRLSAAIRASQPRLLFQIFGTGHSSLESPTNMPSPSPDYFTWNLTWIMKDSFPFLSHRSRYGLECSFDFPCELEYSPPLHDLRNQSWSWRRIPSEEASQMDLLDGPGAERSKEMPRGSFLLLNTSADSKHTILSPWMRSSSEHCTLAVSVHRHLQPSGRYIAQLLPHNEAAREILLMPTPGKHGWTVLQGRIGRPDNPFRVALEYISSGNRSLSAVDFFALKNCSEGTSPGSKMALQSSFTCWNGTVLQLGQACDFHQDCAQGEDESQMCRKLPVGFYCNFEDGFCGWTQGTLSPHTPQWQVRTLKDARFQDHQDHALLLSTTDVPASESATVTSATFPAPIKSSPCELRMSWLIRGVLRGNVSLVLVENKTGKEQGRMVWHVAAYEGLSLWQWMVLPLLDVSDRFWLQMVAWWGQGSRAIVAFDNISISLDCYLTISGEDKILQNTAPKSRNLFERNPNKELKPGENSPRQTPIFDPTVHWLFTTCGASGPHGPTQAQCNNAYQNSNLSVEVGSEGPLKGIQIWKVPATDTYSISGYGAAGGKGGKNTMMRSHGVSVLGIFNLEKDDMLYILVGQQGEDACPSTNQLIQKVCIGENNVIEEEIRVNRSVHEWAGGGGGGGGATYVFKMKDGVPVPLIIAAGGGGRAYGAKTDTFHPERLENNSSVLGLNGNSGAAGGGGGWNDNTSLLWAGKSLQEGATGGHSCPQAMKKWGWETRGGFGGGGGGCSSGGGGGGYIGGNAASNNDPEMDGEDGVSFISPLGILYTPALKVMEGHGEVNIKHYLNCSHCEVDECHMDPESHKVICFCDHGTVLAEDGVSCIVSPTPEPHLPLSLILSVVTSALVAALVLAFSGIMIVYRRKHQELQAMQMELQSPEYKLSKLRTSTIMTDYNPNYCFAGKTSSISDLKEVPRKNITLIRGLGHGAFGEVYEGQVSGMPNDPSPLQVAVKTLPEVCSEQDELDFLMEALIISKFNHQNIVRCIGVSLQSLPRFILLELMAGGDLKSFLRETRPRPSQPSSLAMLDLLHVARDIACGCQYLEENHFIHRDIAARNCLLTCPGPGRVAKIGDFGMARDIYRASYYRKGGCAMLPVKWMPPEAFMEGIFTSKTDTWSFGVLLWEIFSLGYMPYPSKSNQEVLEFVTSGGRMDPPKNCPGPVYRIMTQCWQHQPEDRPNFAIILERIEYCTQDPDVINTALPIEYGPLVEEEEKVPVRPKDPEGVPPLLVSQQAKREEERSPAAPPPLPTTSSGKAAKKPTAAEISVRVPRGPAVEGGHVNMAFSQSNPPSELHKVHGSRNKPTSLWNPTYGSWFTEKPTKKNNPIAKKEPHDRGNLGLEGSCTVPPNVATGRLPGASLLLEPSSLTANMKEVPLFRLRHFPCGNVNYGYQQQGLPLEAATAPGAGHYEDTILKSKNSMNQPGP

`CNC(=O)C1C2C=CC(C2)C1Nc1nc(Nc2cc3c(cc2OC)CCN(CCOC)CC3)ncc1Cl` (stereo not drawn) [Example 604, (2-exo-3-exo)-3-{5-Chloro-2-[8-methoxy-3-(2-methoxy-ethyl)-2,3,4,5-tetrahydro-1H-benzo[d]azepin-7-ylamino]-pyrimidin-4-ylamino}-bicyclo[2.2.1]hept-5-ene-2-carboxylic acid methylamide]: the IC50 is < 100 nM in assay [1] and > 10000 nM in assay [2].
For `COCCN1CCc2cc(Nc3ncc(Cl)c(NC4C5C=CC(C5)C4C(=O)NC(C)C)n3)c(OC)cc2CC1` (stereo not drawn) [Example 605, (2-exo-3-exo)-3-{5-Chloro-2-[8-methoxy-3-(2-methoxy-ethyl)-2,3,4,5-tetrahydro-1H-benzo[d]azepin-7-ylamino]-pyrimidin-4-ylamino}-bicyclo[2.2.1]hept-5-ene-2-carboxylic acid isopropylamide] the same measures were < 100 nM and > 10000 nM.
Consider `COCCN1CCc2cc(Nc3ncc(Cl)c(NC4C5C=CC(C5)C4C(=O)N(C)C)n3)c(OC)cc2CC1` (stereo not drawn) [Example 606, (2-exo-3-exo)-3-{5-Chloro-2-[8-methoxy-3-(2-methoxy-ethyl)-2,3,4,5-tetrahydro-1H-benzo[d]azepin-7-ylamino]-pyrimidin-4-ylamino}-bicyclo[2.2.1]hept-5-ene-2-carboxylic acid dimethylamide], for which the figures for the IC50 in assay [1] and in assay [2] were < 100 nM and > 10000 nM, respectively.
As to `CCN1C(=O)CCCc2c1ccc(Nc1ncc(Cl)c(Nc3ccc(OC)cc3C(=O)NC)n1)c2OC` [Example 607, 2-[5-Chloro-2-(1-ethyl-6-methoxy-2-oxo-2,3,4,5-tetrahydro-1H-benzo[b]azepin-7-ylamino)-pyrimidin-4-ylamino]-5-methoxy-N-methyl-benzamide], the IC50 in assay [1] is < 100 nM; in assay [2] it was 1000 to 10000 nM.
Taken in the same sequence, the figures for `CCN1C(=O)CCCc2c1ccc(Nc1ncc(Cl)c(Nc3ccc(OC)cc3C(=O)OC(C)C)n1)c2OC` [Example 608, 2-[5-Chloro-2-(1-ethyl-6-methoxy-2-oxo-2,3,4,5-tetrahydro-1H-benzo[b]azepin-7-ylamino)-pyrimidin-4-ylamino]-5-methoxy-benzoic acid isopropyl ester] were 1000 to 10000 nM and > 10000 nM.
For `CNC(=O)c1cc(OC)ccc1Nc1nc(Nc2ccc3c(c2)C(C)(C)CCC(=O)N3)ncc1Cl` [Example 609, 2-[5-Chloro-2-(5,5-dimethyl-2-oxo-2,3,4,5-tetrahydro-1H-benzo[b]azepin-7-ylamino)-pyrimidin-4-ylamino]-5-methoxy-N-methyl-benzamide] the same measures were < 100 nM and 100 to 1000 nM.
Taken in the same sequence, the figures for `COCCN1CCc2cc(Nc3ncc(Cl)c(NC4C5C=CC(C5)C4c4nc5ccccc5[nH]4)n3)c(OC)cc2CC1` (stereo not drawn) [Example 610, N*4*-[(2-exo-3-exo)-3-(1H-Benzoimidazol-2-yl)-bicyclo[2.2.1]hept-5-en-2-yl]-5-chloro-N*2*-[8-methoxy-3-(2-methoxy-ethyl)-2,3,4,5-tetrahydro-1H-benzo[d]azepin-7-yl]-pyrimidine-2,4-diamine] were 1000 to 10000 nM and > 10000 nM.
Consider `COc1ccc(Nc2nc(Nc3ccc4c(c3)C(C)(C)CCC(=O)N4)ncc2Cl)c(-n2cccn2)c1` [Example 611, 7-[5-Chloro-4-(4-methoxy-2-pyrazol-1-yl-phenylamino)-pyrimidin-2-ylamino]-5,5-dimethyl-1,3,4,5-tetrahydro-benzo[b]azepin-2-one], for which the IC50 is < 100 nM in assay [1] and 1000 to 10000 nM in assay [2].
For `COCCN1CCc2cc(Nc3ncc(Cl)c(Nc4ccc(OC)cc4-n4cccn4)n3)c(OC)cc2CC1` [Example 612, 5-Chloro-N*2*-[8-methoxy-3-(2-methoxy-ethyl)-2,3,4,5-tetrahydro-1H-benzo[d]azepin-7-yl]-N*4*-(4-methoxy-2-pyrazol-1-yl-phenyl)-pyrimidine-2,4-diamine] the same measures were < 100 nM and > 10000 nM.
For the compound `CCN1C(=O)CCCc2c1ccc(Nc1ncc(Cl)c(Nc3ccc(OC)cc3-n3cccn3)n1)c2OC` [Example 613, 7-[5-Chloro-4-(4-methoxy-2-pyrazol-1-yl-phenylamino)-pyrimidin-2-ylamino]-1-ethyl-6-methoxy-1,3,4,5-tetrahydro-benzo[b]azepin-2-one], the IC50 in assay [1] was < 100 nM; in assay [2], > 10000 nM.
For `CCN1C(=O)CCCc2cc(Nc3ncc(Cl)c(Nc4ccc(OC)cc4-n4cccn4)n3)c(OC)cc21` [Example 614, 7-[5-Chloro-4-(4-methoxy-2-pyrazol-1-yl-phenylamino)-pyrimidin-2-ylamino]-1-ethyl-8-methoxy-1,3,4,5-tetrahydro-benzo[b]azepin-2-one] the same measures were < 100 nM and > 10000 nM.
For `COc1ccc(Nc2nc(Nc3cc4c(cc3OC)CCN(CC(=O)N(C)C)CC4)ncc2Cl)c(-n2cccn2)c1` [Example 616, 2-{7-[5-Chloro-4-(4-methoxy-2-pyrazol-1-yl-phenylamino)-pyrimidin-2-ylamino]-8-methoxy-1,2,4,5-tetrahydro-benzo[d]azepin-3-yl}-N,N-dimethyl-acetamide], the values for the IC50 in assay [1] and in assay [2] were < 100 nM and > 10000 nM, respectively.
With `CNC(=O)c1cc(OC)ccc1Nc1nc(Nc2cc3c(cc2OC)CCN(CC(=O)N(C)C)CC3)ncc1Cl` [Example 617, 2-[5-Chloro-2-(3-dimethylcarbamoylmethyl-8-methoxy-2,3,4,5-tetrahydro-1H-benzo[d]azepin-7-ylamino)-pyrimidin-4-ylamino]-5-methoxy-N-methyl-benzamide], the IC50 was < 100 nM in assay [1] and 1000 to 10000 nM in assay [2].
Turning to `CNC(=O)c1cc(OC)ccc1Nc1nc(Nc2ccc3c(c2)CCN(CCOC)CC3)ncc1Cl` [Example 618, 2-{5-Chloro-2-[3-(2-methoxy-ethyl)-2,3,4,5-tetrahydro-1H-benzo[d]azepin-7-ylamino]-pyrimidin-4-ylamino}-5-methoxy-N-methyl-benzamide], the IC50 in assay [1] and in assay [2] was < 100 nM each time.
For the compound `COc1ccc(Nc2nc(Nc3ccc4c(c3)C(C)(C)CCC(=O)N4C)ncc2Cl)c(-n2cccn2)c1` [Example 619, 7-[5-Chloro-4-(4-methoxy-2-pyrazol-1-yl-phenylamino)-pyrimidin-2-ylamino]-1,5,5-trimethyl-1,3,4,5-tetrahydro-benzo[b]azepin-2-one], the IC50 in assay [1] is < 100 nM; in assay [2], 100 to 1000 nM.
For `CNC(=O)c1cc(OC)ccc1Nc1nc(Nc2cc3c(cc2OC)CCN(CCOC)CC3)ncc1Cl` [Example 621, 2-{5-Chloro-2-[8-methoxy-3-(2-methoxy-ethyl)-2,3,4,5-tetrahydro-1H-benzo[d]azepin-7-ylamino]-pyrimidin-4-ylamino}-5-methoxy-N-methyl-benzamide] the same measures were < 100 nM and 1000 to 10000 nM.
`COc1ccc(Nc2nc(Nc3ccc4c(c3)CCC(N3CCOCC3)CC4)ncc2Cl)c(-n2cccn2)c1` (centres unmarked) [Example 622, 5-Chloro-N*4*-(4-methoxy-2-pyrazol-1-yl-phenyl)-N*2*-(7-morpholin-4-yl-6,7,8,9-tetrahydro-5H-benzocyclohepten-2-yl)-pyrimidine-2,4-diamine]: the IC50 in assay [1] is < 100 nM; in assay [2], 1000 to 10000 nM.
Taken in the same sequence, the figures for `COc1ccc(Nc2nc(Nc3ccc4c(c3)CCC(O)CC4)ncc2Cl)c(-n2cccn2)c1` (centres unmarked) [Example 623, 2-[5-Chloro-4-(4-methoxy-2-pyrazol-1-yl-phenylamino)-pyrimidin-2-ylamino]-6,7,8,9-tetrahydro-5H-benzocyclohepten-7-ol] were < 100 nM and 1000 to 10000 nM.
With `CNC(=O)C1C2C=CC(C2)C1Nc1nc(Nc2ccc3c(c2)CCC(N2CCOCC2)CC3)ncc1Cl` (stereo not drawn) [Example 624, (2-exo-3-exo)-3-[5-Chloro-2-(7-morpholin-4-yl-6,7,8,9-tetrahydro-5H-benzocyclohepten-2-ylamino)-pyrimidin-4-ylamino]-bicyclo[2.2.1]hept-5-ene-2-carboxylic acid methylamide], the figures for the IC50 in assay [1] and in assay [2] were < 100 nM and 100 to 1000 nM, respectively.
For `CNC(=O)C1C2C=CC(C2)C1Nc1nc(Nc2ccc3c(c2)CCC(O)CC3)ncc1Cl` (stereo not drawn) [Example 625, (2-exo-3-exo)-3-[5-Chloro-2-(7-hydroxy-6,7,8,9-tetrahydro-5H-benzocyclohepten-2-ylamino)-pyrimidin-4-ylamino]-bicyclo[2.2.1]hept-5-ene-2-carboxylic acid methylamide] the same measures were < 100 nM and 100 to 1000 nM.
Taken in the same sequence, the figures for `COc1cc2c(cc1Nc1ncc(Cl)c(Nc3ccc(N4CCOCC4)cc3-n3cccn3)n1)CCN(CC(=O)N(C)C)CC2` [Example 626, 2-{7-[5-Chloro-4-(4-morpholin-4-yl-2-pyrazol-1-yl-phenylamino)-pyrimidin-2-ylamino]-8-methoxy-1,2,4,5-tetrahydro-benzo[d]azepin-3-yl}-N,N-dimethyl-acetamide] were < 100 nM and > 10000 nM.
Consider `CC1(C)CCC(=O)Nc2ccc(Nc3ncc(Cl)c(Nc4ccc(N5CCOCC5)cc4-n4cccn4)n3)cc21` [Example 627, 7-[5-Chloro-4-(4-morpholin-4-yl-2-pyrazol-1-yl-phenylamino)-pyrimidin-2-ylamino]-5,5-dimethyl-1,3,4,5-tetrahydro-benzo[b]azepin-2-one], for which the IC50 is < 100 nM in assay [1] and 1000 to 10000 nM in assay [2].
